Assay results taken from patent US9962351B2, “Small molecule substance for improving sensitivity of bacteria to antibiotics” (priority 2012, dated 2018).
Values after ≈ are worked out from the molar mass of the structure shown.

Key:
[1] = test system: Escherichia coli K12 BW25113; test: MIC by double dilution method, initial bacteria; format: cell-based; conditions: for MIC: Escherichia coli, BW25113, read-out: MIC0
Experimental: (§1) Escherichia coli is a bacterium that is most commonly found in the gut of human and animal. It mainly parasitizes in the intestines, and accounts for about 1% of the intestine bacteria. Minimum inhibitory concentration (MIC) of Escherichia coli K12 BW25113 for ten kinds of antibiotics was detected with double dilution method. Escherichia coli K12 BW25113 of 10^5 colony forming unit/ml was cultured respectively in Luria-Bertani (LB) liquid medium separately with each of ten antibiotics at the concentration of ½ MIC at 37° C., and was serially passaged 10 times, so that the MIC of single colony was determined.

[2] = test system: antibiotic-resistant Escherichia coli (passaged K12 BW25113); test: MIC of single colony after 10 serial passages with antibiotic at 1/2 MIC; format: cell-based; conditions: for MIC: Escherichia coli, BW25113, read-out: MIC10; for MIC10/MIC0: ratio of MIC after to before passage
Experimental: as §1

Compound | MIC [1] | MIC [2] | MIC10/MIC0 [2] | MIC0 ([1]; before passage) | MIC10 ([2]; after 10 serial passages in LB with the respective antibiotic at 1/2 MIC, 37° C.)
CNC1CCCN(c2c(F)cc3c(=O)c(C(=O)O)cn(C4CC4)c3c2OC)C1 (stereo not shown) [BLFX, balofloxacin] | 0.25 µg/mL (≈ 0.642 µM) | 16 µg/mL | 64 | – | –
O=C(N[C@H](CO)[C@H](O)c1ccc([N+](=O)[O-])cc1)C(Cl)Cl [CAP, chloramphenicol] | 6.8 µg/mL (≈ 21 µM) | 435 µg/mL | 64 | – | –
CC(C)(O/N=C(\C(=O)N[C@@H]1C(=O)N2C(C(=O)[O-])=C(C[n+]3ccccc3)CS[C@H]12)c1csc(N)n1)C(=O)O [CAZ, ceftazidime] | 0.125 µg/mL (≈ 0.229 µM) | 8 µg/mL | – | – | –
CC[C@H]1OC(=O)[C@H](C)[C@@H](O[C@H]2C[C@@](C)(OC)[C@@H](O)[C@H](C)O2)[C@H](C)[C@@H](O[C@@H]2O[C@H](C)C[C@H](N(C)C)[C@H]2O)[C@](C)(O)C[C@@H](C)C(=O)[C@H](C)[C@@H](O)[C@]1(C)O [ER, erythromycin] | 50 µg/mL (≈ 68.1 µM) | 3200 µg/mL | 64 | – | –
NC[C@H]1O[C@H](O[C@H]2[C@H](O)[C@@H](O[C@H]3O[C@H](CO)[C@@H](O)[C@H](N)[C@H]3O)[C@H](N)C[C@@H]2N)[C@H](O)[C@@H](O)[C@@H]1O [KAN, kanamycin] | 6.25 µg/mL (≈ 12.9 µM) | 400 µg/mL | 64 | – | –
CCn1cc(C(=O)O)c(=O)c2ccc(C)nc21 [NA, nalidixic acid] | 5 µg/mL (≈ 21.5 µM) | 320 µg/mL | 64 | – | –
[H]/N=C(/N)N[C@H]1[C@H](O)[C@@H](O)[C@H](O[C@@H]2O[C@@H](C)[C@](O)(C=O)[C@H]2O[C@@H]2O[C@@H](CO)[C@H](O)[C@@H](O)[C@@H]2NC)[C@@H](N/C(N)=N\[H])[C@@H]1O [SM, streptomycin] | 6.25 µg/mL (≈ 10.7 µM) | 400 µg/mL | 64 | – | –
CN(C)[C@@H]1C(O)=C(C(N)=O)C(=O)[C@@]2(O)C(O)=C3C(=O)c4c(O)cccc4[C@@](C)(O)[C@H]3C[C@@H]12 [TET, tetracycline] | 3.12 µg/mL (≈ 7.03 µM) | 200 µg/mL | – | – | –
gentamicin | – | – | 64 | 1.25 µg/mL | 80 µg/mL
